Measured values: PMC9299836 (eLife, 2022)

Target: mGluR2 (Mus musculus, UniProt Q14BI2, A548F)
Assay: smFRET of azi-CRD: cross-correlation of donor and acceptor intensities (CRD dynamics) and HMM transition density plots;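 also: single detergent-solubilized receptors captured on antibody-coated flow cells via C-terminal FLAG-tag, imaged by smFRET, donor and acceptor intensity traces from three independent biological replicates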

Sequence of mGluR2 (Q14BI2 19-872 A548F): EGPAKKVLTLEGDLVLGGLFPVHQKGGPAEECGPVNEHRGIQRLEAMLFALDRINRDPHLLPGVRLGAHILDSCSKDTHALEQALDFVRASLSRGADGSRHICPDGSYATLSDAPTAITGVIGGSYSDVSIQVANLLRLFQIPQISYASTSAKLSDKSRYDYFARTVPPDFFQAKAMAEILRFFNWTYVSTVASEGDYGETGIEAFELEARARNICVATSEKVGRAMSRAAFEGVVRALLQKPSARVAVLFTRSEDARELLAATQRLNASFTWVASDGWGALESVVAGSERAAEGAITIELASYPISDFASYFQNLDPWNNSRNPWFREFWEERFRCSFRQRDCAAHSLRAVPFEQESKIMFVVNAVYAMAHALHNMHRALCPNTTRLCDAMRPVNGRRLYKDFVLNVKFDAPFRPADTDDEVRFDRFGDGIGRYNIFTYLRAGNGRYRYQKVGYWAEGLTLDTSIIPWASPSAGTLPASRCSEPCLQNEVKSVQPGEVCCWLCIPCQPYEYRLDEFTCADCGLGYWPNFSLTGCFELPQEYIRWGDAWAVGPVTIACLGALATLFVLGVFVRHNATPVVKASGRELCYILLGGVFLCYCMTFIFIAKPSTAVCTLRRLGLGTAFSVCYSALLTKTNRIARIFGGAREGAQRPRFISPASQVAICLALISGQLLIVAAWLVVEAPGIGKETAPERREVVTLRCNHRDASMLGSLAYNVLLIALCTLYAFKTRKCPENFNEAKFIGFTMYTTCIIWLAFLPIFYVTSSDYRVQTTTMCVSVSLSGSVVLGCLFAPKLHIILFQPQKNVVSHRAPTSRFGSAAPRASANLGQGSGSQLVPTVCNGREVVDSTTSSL

Cross Correlation, Mean (0μM Glutamate + GPT/Pyruvate + 5μM MNI-137, Time 0.2 s): -0.028 | Cross Correlation, Mean (0μM Glutamate + GPT/Pyruvate + 5μM MNI-137, Time 0.25 s): -0.03232 | Cross Correlation, Mean (0μM Glutamate + GPT/Pyruvate + 5μM MNI-137, Time 0.3 s): -0.03245 | Cross Correlation, Mean (0μM Glutamate + GPT/Pyruvate + 5μM MNI-137, Time 0.35 s): -0.03285 | Cross Correlation, Mean (0μM Glutamate + GPT/Pyruvate + 5μM MNI-137, Time 0.4 s): -0.02992 | Cross Correlation, Mean (0μM Glutamate + GPT/Pyruvate + 5μM MNI-137, Time 0.45 s): -0.02563 | Cross Correlation, Mean (0μM Glutamate + GPT/Pyruvate + 5μM MNI-137, Time 0.5 s): -0.0232 | Cross Correlation, Mean (0μM Glutamate + GPT/Pyruvate + 5μM MNI-137, Time 0.55 s): -0.0254 | Cross Correlation, Mean (0μM Glutamate + GPT/Pyruvate + 5μM MNI-137, Time 0.6 s): -0.02539 | Cross Correlation, Mean (0μM Glutamate + GPT/Pyruvate + 5μM MNI-137, Time 0.65 s): -0.02363 | Cross Correlation, Mean (0μM Glutamate + GPT/Pyruvate + 5μM MNI-137, Time 0.7 s): -0.02361 | Cross Correlation, Mean (0μM Glutamate + GPT/Pyruvate + 5μM MNI-137, Time 0.8 s): -0.02074 | Cross Correlation, Mean (0μM Glutamate + GPT/Pyruvate + 5μM MNI-137, Time 0.85 s): -0.0233 | Cross Correlation, Mean (0μM Glutamate + GPT/Pyruvate + 5μM MNI-137, Time 0.9 s): -0.02522 | Cross Correlation, Mean (0μM Glutamate + GPT/Pyruvate + 5μM MNI-137, Time 0.95 s): -0.02254 | Cross Correlation, Mean (0μM Glutamate + GPT/Pyruvate + 5μM MNI-137, Time 1 s): -0.02263 | Cross Correlation, Mean (0μM Glutamate + GPT/Pyruvate + 5μM MNI-137, Time 1.05 s): -0.01654 | Cross Correlation, Mean (0μM Glutamate + GPT/Pyruvate + 5μM MNI-137, Time 1.1 s): -0.01694 | Cross Correlation, Mean (0μM Glutamate + GPT/Pyruvate + 5μM MNI-137, Time 1.15 s): -0.0245 | Cross Correlation, Mean (0μM Glutamate + GPT/Pyruvate + 5μM MNI-137, Time 1.2 s): -0.02011 | Cross Correlation, Mean (0μM Glutamate + GPT/Pyruvate + 5μM MNI-137, Time 1.25 s): -0.02479 | Cross Correlation, Mean (0μM Glutamate + GPT/Pyruvate + 5μM MNI-137, Time 1.3 s): -0.01941 | Cross Correlation, Mean (0μM Glutamate + GPT/Pyruvate + 5μM MNI-137, Time 1.35 s): -0.01897 | Cross Correlation, Mean (0μM Glutamate + GPT/Pyruvate + 5μM MNI-137, Time 1.4 s): -0.02381 | Cross Correlation, Mean (0μM Glutamate + GPT/Pyruvate + 5μM MNI-137, Time 1.45 s): -0.01493 | Cross Correlation, Mean (0μM Glutamate + GPT/Pyruvate + 5μM MNI-137, Time 1.5 s): -0.01697 | Cross Correlation, Mean (0μM Glutamate + GPT/Pyruvate + 5μM MNI-137, Time 1.6 s): -0.01709 | Cross Correlation, Mean (0μM Glutamate + GPT/Pyruvate + 5μM MNI-137, Time 1.65 s): -0.01348 | Cross Correlation, Mean (0μM Glutamate + GPT/Pyruvate + 5μM MNI-137, Time 1.7 s): -0.01427 | Cross Correlation, Mean (0μM Glutamate + GPT/Pyruvate + 5μM MNI-137, Time 1.75 s): -0.0161 | Cross Correlation, Mean (0μM Glutamate + GPT/Pyruvate + 5μM MNI-137, Time 1.8 s): -0.01106 | Cross Correlation, Mean (0μM Glutamate + GPT/Pyruvate + 5μM MNI-137, Time 1.85 s): -0.00832 | Cross Correlation, Mean (0μM Glutamate + GPT/Pyruvate + 5μM MNI-137, Time 1.9 s): -0.01466 | Cross Correlation, Mean (15μM Glutamate + 5μM MNI-137, Time 0.2 s): -0.09437 | Cross Correlation, Mean (15μM Glutamate + 5μM MNI-137, Time 0.25 s): -0.08281 | Cross Correlation, Mean (15μM Glutamate + 5μM MNI-137, Time 0.3 s): -0.0732 | Cross Correlation, Mean (15μM Glutamate + 5μM MNI-137, Time 0.35 s): -0.06697 | Cross Correlation, Mean (15μM Glutamate + 5μM MNI-137, Time 0.4 s): -0.05965 | Cross Correlation, Mean (15μM Glutamate + 5μM MNI-137, Time 0.45 s): -0.05857 | Cross Correlation, Mean (15μM Glutamate + 5μM MNI-137, Time 0.5 s): -0.05707 | Cross Correlation, Mean (15μM Glutamate + 5μM MNI-137, Time 0.55 s): -0.05428 | Cross Correlation, Mean (15μM Glutamate + 5μM MNI-137, Time 0.6 s): -0.04785 | Cross Correlation, Mean (15μM Glutamate + 5μM MNI-137, Time 0.65 s): -0.04876 | Cross Correlation, Mean (15μM Glutamate + 5μM MNI-137, Time 0.7 s): -0.04192 | Cross Correlation, Mean (15μM Glutamate + 5μM MNI-137, Time 0.75 s): -0.0438 | Cross Correlation, Mean (15μM Glutamate + 5μM MNI-137, Time 0.8 s): -0.04286 | Cross Correlation, Mean (15μM Glutamate + 5μM MNI-137, Time 0.85 s): -0.04147 | Cross Correlation, Mean (15μM Glutamate + 5μM MNI-137, Time 0.9 s): -0.0389 | Cross Correlation, Mean (15μM Glutamate + 5μM MNI-137, Time 0.95 s): -0.03855 | Cross Correlation, Mean (15μM Glutamate + 5μM MNI-137, Time 1 s): -0.03542 | Cross Correlation, Mean (15μM Glutamate + 5μM MNI-137, Time 1.05 s): -0.03118 | Cross Correlation, Mean (15μM Glutamate + 5μM MNI-137, Time 1.1 s): -0.03249 | Cross Correlation, Mean (15μM Glutamate + 5μM MNI-137, Time 1.15 s): -0.02794
Substance: MNI-137
